Laboratory results reported in ChEMBL document CHEMBL4190357, “New Substituted Cyanoindoline Derivatives as MAP3K14 Kinase Inhibitors for the Treatment of Cancer and Autoimmune Disorders” (ACS Med Chem Lett, 2017).

Key:
JJN-3 = assay: Antiproliferative activity against human JJN-3 cells after 96 hrs by CellTiter-Glo luminescence assay; assay type: functional, cell-based; settings: JJN-3, 96 h
[1] = molecular target: T1, Mitogen-activated protein kinase kinase kinase 14 (Homo sapiens, UniProt Q99558); assay: Inhibition of MAP3K14 in human L363 assessed as decrease in IKKalpha phosphorylation level after 2 hrs by sandwich immuno assay
T1 sequence (Q99558 whole entry): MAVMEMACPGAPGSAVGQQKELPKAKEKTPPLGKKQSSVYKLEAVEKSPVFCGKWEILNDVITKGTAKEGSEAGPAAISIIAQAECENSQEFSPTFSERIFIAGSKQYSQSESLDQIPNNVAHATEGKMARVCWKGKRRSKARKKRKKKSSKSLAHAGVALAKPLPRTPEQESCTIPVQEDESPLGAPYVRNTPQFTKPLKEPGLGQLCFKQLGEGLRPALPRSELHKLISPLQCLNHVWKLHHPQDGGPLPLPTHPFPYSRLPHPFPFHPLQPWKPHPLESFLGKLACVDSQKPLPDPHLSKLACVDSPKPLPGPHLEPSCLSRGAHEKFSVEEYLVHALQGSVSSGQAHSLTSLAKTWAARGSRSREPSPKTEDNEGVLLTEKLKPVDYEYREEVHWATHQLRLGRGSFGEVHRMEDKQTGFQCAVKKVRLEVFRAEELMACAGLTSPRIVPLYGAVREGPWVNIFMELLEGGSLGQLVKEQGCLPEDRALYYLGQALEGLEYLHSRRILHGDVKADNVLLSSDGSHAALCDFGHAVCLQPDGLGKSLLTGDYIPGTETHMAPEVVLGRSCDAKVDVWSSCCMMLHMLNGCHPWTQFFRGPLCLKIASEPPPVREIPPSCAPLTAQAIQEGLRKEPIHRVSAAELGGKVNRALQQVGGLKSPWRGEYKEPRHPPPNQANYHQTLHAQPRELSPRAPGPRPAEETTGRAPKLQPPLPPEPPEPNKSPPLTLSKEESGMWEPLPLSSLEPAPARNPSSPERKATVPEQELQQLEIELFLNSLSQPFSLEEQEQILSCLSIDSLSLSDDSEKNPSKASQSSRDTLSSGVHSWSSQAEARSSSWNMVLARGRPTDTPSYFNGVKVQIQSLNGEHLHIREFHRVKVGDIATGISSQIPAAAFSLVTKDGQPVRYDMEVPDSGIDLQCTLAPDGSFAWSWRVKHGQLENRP

KMS-12-BM = assay: Antiproliferative activity against human KMS-12-BM cells after 96 hrs by CellTiter-Glo luminescence assay; assay type: functional, cell-based
[2] = molecular target: T1, Mitogen-activated protein kinase kinase kinase 14; assay: Inhibition of recombinant human GST-tagged MAP3K14 autophosphorylation after 1 hr by Alpha screen assay

## CNC(=O)c1ccc(OC(C)C)c(Nc2nccc(-c3cc(C#N)c4c(c3)[C@@](C)(CO)CN4)n2)c1
JJN-3
  IC50: 288 nM
[1]
  IC50: 19.5 nM
KMS-12-BM
  IC50: > 10000 nM

## Cc1cc(CCN2CCOCC2)c(C#N)cc1Nc1nccc(-c2cc(C#N)c3c(c2)[C@@](C)(CO)CN3)n1
JJN-3
  IC50: 29 nM
[1]
  IC50: 1.3 nM
KMS-12-BM
  IC50: > 10000 nM

## CC(C)(O)COc1ccc(C#N)cc1Nc1nccc(-c2cc(C#N)c3c(c2)[C@@](C)(CO)CN3)n1
JJN-3
  IC50: 138 nM
[1]
  IC50: 25.7 nM
KMS-12-BM
  IC50: 4900 nM

## CC(C)Oc1ccc(CO)cc1Nc1nccc(-c2cc(C#N)c3c(c2)[C@@](C)(CO)CN3)n1
JJN-3
  IC50: 141 nM
[1]
  IC50: 6.6 nM
KMS-12-BM
  IC50: > 10000 nM

## Cc1ccc(C#N)cc1Nc1ncc(F)c(-c2cc(C#N)c3c(c2)[C@@](C)(CO)CN3)n1
JJN-3
  IC50: 302 nM
[1]
  IC50: 1.2 nM
KMS-12-BM
  IC50: > 10000 nM

## Cc1cc(F)c(C#N)cc1Nc1nccc(-c2cc(C#N)c3c(c2)[C@@](C)(CO)CN3)n1
JJN-3
  IC50: 617 nM
[1]
  IC50: 6 nM
KMS-12-BM
  IC50: > 10000 nM

## CN1CC(F)C(Oc2ccc(C#N)cc2Nc2nccc(-c3cc(C#N)c4c(c3)[C@@](C)(CO)CN4)n2)C1 (some centres not stated)
JJN-3
  IC50: 741 nM
[1]
  IC50: 21.4 nM
KMS-12-BM
  IC50: > 10000 nM

## Cc1cc(F)c(CO)cc1Nc1nccc(-c2cc(C#N)c3c(c2)[C@@](C)(CO)CN3)n1
JJN-3
  IC50: 272 nM
[1]
  IC50: 7.8 nM
KMS-12-BM
  IC50: > 10000 nM

## C[C@]1(CO)CNc2c(C#N)cc(-c3ccnc(Nc4cc(C#N)ccc4OC4CC4)n3)cc21
JJN-3
  IC50: 67 nM
[1]
  IC50: 11.5 nM
KMS-12-BM
  IC50: 1230 nM

## [2H]C([2H])(O)c1ccc(C)c(Nc2nccc(-c3cc(C#N)c4c(c3)[C@@](C)(CO)CN4)n2)c1
JJN-3
  IC50: 91 nM
[1]
  IC50: 2.2 nM
KMS-12-BM
  IC50: > 10000 nM

## CNC(=O)c1ccc(C)c(Nc2nccc(-c3cc(C#N)c4c(c3)[C@@](C)(CO)CN4)n2)c1
JJN-3
  IC50: 85 nM
[1]
  IC50: 2.2 nM
[2]
  IC50: 1.8 nM
KMS-12-BM
  IC50: 5190 nM

## C[C@]1(CO)CNc2c(C#N)cc(-c3ccnc(Nc4cc(C#N)ccc4CO)n3)cc21
JJN-3
  IC50: 240 nM
[1]
  IC50: 6.3 nM
KMS-12-BM
  IC50: > 10000 nM
